Laboratory results: US20240417398A1, “TETRAHYDRONAPTHYRIDINE AND RELATED ANALOGS FOR INHIBITING YAP/TAZ-TEAD” (SpringWorks Therapeutics, Inc., priority 2023, published 2024)

System: YAP/TAZ-TEAD transcription
Experiment: Reporter gene assay for measuring the inhibition of YAP/TAZ-TEAD transcription (TEAD-responsive element luciferase reporter, Hek293T cells)
Type: cell-based
Conditions: Hek293T cells transfected with TEAD-responsive element luciferase reporter, 24 hours incubation
Procedure: Hek293T cells were cultured in DMEM supplemented with 10% fetal bovine serum, Sodium pyruvate, Sodium bicarbonate, L-glutamine. The cells were harvested and transiently transfected with TEAD-responsive element luciferase reporter. Transfected cells were plated in 384-well plate containing pre-diluted compounds. After 24 hours incubation at 37° C./5% CO2, assay plates were cooled to room temperature and levelled to an equal volume per well, prior to the addition of 25 uL luciferase substrate SteadyLite (Perkin Elmer)/well. The plate was shaken for 10 min at 600 rpm, centrifuged for 1 min at 500 rpm and measured with an Envision reader (PerkinElmer). The amount of relative light units produced by the TEAD reporter was used to calculate the percentage of inhibition.
The percent of reporter inhibition was calculated in the presence of a positive control inhibitor (100% inhibition) versus a condition with the presence of the vehicle basal activity of the reporter (0% inhibition). The ability of a test compound to inhibit this activity was determined as: Percentage inhibition=[1-((RLU determined in the presence of vehicle−RLU determined for sample with test compound present) divided by (RLU determined in the presence of vehicle−RLU determined for sample with positive control inhibitor))]*100.
The activities of example compounds tested are depicted in Table 3. The activity ranges A, B and C refer to IC50 values in the reporter gene assay as follows: “A”: IC50<1 μM; “B”: 1 μM≤IC50 10 μM and “C”: IC50>10 μM; NT=not tested.

SMILES | IC50 [nM] | IC50 (Homo sapiens, HEK-293T, 24 h) [nM]
CCC(=O)NCC1Cc2ncccc2N(c2ccc(C(F)(F)F)cc2)C1 (single isomer, unassigned) [Cpd. No. 17-En1, (R)- or (S)-N-((1-(4-(trifluoromethyl)phenyl)-1,2,3,4-tetrahydro-1,5-naphthyridin-3-yl)methyl)propionamide] | – | 1000 to 10000
COc1ccc2c(n1)CC(CNC(C)=O)CN2c1ccc(C(F)(F)F)cc1 (single isomer, unassigned) [Cpd. No. 22-En1, (R)- or (S)-N-((6-methoxy-1-(4-(trifluoromethyl)phenyl)-1,2,3,4-tetrahydro-1,5-naphthyridin-3-yl)methyl)acetamide] | – | 1000 to 10000
O=C(CC(F)(F)F)NCC1Cc2ncccc2N(c2ccc(C(F)(F)F)cc2)C1 (single isomer, unassigned) [Cpd. No. 38-En1, (R)- or (S)-3,3,3-trifluoro-N-((1-(4-(trifluoromethyl)phenyl)-1,2,3,4-tetrahydro-1,5-naphthyridin-3-yl)methyl)propanamide] | – | 1000 to 10000
O=C(CC(F)(F)F)NCC1Cc2ncccc2N(c2ccc(C(F)(F)F)cc2)C1 (single isomer, unassigned) [Cpd. No. 38-En2, (R)- or (S)-3,3,3-trifluoro-N-((1-(4-(trifluoromethyl)phenyl)-1,2,3,4-tetrahydro-1,5-naphthyridin-3-yl)methyl)propanamide] | < 1000 | –
CC(=O)NCC1(C)Cc2ncccc2N(c2ccc(C(F)(F)F)cc2)C1 (single isomer, unassigned) [Cpd. No. 47-En2, (R)- or (S)-N-((3-methyl-1-(4-(trifluoromethyl)phenyl)-1,2,3,4-tetrahydro-1,5-naphthyridin-3-yl)methyl)acetamide] | > 10000 | –
CS(=O)(=O)NCC1Cc2c(Oc3cccnc3)cccc2N(c2ccc(C(F)(F)F)cc2)C1 (stereo not drawn) [Cpd. No. 2, N-((5-(pyridin-3-yloxy)-1-(4-(trifluoromethyl)phenyl)-1,2,3,4-tetrahydroquinolin-3-yl)methyl)methanesulfonamide] | – | 1000 to 10000

The next lines start with the values.

IC50 [nM] | IC50 (Homo sapiens, HEK-293T, 24 h) [nM] | SMILES
< 1000 | – | C=CC(=O)NCC1Cc2ncccc2N(c2ccc(C(F)(F)F)cc2)C1 (single isomer, unassigned) [Cpd. No. 10-En2, (R)- or (S)-N-((1-(4-(trifluoromethyl)phenyl)-1,2,3,4-tetrahydro-1,5-naphthyridin-3-yl)methyl)acrylamide]
– | 1000 to 10000 | CC(=O)NCC1Cc2ncccc2N(c2ccc(C(F)(F)F)cc2)C1 (single isomer, unassigned) [Cpd. No. 12-En1, (R)- or (S)-N-((1-(4-(trifluoromethyl)phenyl)-1,2,3,4-tetrahydro-1,5-naphthyridin-3-yl)methyl)acetamide]
– | 1000 to 10000 | COC(=O)NCC1Cc2ncccc2N(c2ccc(C(F)(F)F)cc2)C1 (single isomer, unassigned) [Cpd. No. 15-En2, (R)- or (S)-methyl ((1-(4-(trifluoromethyl)phenyl)-1,2,3,4-tetrahydro-1,5-naphthyridin-3-yl)methyl)carbamate]
– | < 1000 | CC(=O)NCC1Cc2nc(C)ccc2N(c2ccc(C(F)(F)F)cc2)C1 (single isomer, unassigned) [Cpd. No. 26-En1, (R)- or (S)-N-((6-methyl-1-(4-(trifluoromethyl)phenyl)-1,2,3,4-tetrahydro-1,5-naphthyridin-3-yl)methyl)acetamide]
1000 to 10000 | – | [2H]C([2H])([2H])C(=O)NCC1Cc2ncccc2N(c2ccc(C(F)(F)F)cc2)C1 (single isomer, unassigned) [Cpd. No. 34-En1, (R)- or (S)-N-((1-(4-(trifluoromethyl)phenyl)-1,2,3,4-tetrahydro-1,5-naphthyridin-3-yl)methyl)acetamide-2,2,2-d3]
– | < 1000 | CCC(=O)NCC1Cc2c(Oc3cccnc3)cccc2N(c2ccc(C(F)(F)F)cc2)C1 (stereo not drawn) [Cpd. No. 1, N-((5-(pyridin-3-yloxy)-1-(4-(trifluoromethyl)phenyl)-1,2,3,4-tetrahydroquinolin-3-yl)methyl)propionamide]
